# Results as given in US20110002843A1, “METHOD OF DETECTING MYOCARDIAL DYSFUNCTION IN PATIENTS HAVING A HISTORY OF ASTHMA OR BRONCHOSPASM” (priority 2005, published 2011).
# “Also recorded” adds a separate entry of the source.
# Assay: Pulmonary responses and safety in human subjects with mild, intermittent asthma (single-blind and double-blind parts)
# Format: in vivo
# Experimental: Methodology: The study consisted of 2 parts, a Single-Blind Part and a Double-Blind Part. The dose escalating, Single-Blind Part enrolled subjects with mild, intermittent asthma and consisted of 3 sequentially enrolled dosing cohorts with 8 subjects per cohort, such that Dosing Cohorts 1, 2 and 3 received binodenoson target doses of 0.5 μg/kg, 1.0 μg/kg and 1.5 μg/kg, respectively. All 8 subjects in a dosing cohort must have completed dosing at the assigned dose and a medical review of each cohort must have been acceptable before enrollment in the next cohort began. The Double-Blind Part was initiated only if the medical review of all safety data from the Single-Blind Part was acceptable. In the Double Blind Part, subjects with mild, intermittent asthma were randomly assigned in a 2:1 ratio to receive either binodenoson 1.5 μg/kg (n=40 planned) or placebo control (n=20 planned).
# Both study parts were comprised of Screening, Treatment and Follow-Up Visits. The Screening Visit occurred 7 to 14 days before the Treatment Visit and consisted of a physical examination, medical history and application of inclusion and exclusion criteria. Subjects were instructed to measure peak expiratory flow (PEF) and asthma symptoms during a period of at least 7 days prior to the Treatment Visit. Subjects were to continue to meet all Screening eligibility criteria at the Treatment Visit and forced expiratory volume in 1 second (FEV1) was to remain within 80% of predicted for subjects to be eligible for dosing. All subjects enrolled in the Single-Blind Part and subjects randomized to receive binodenoson in the Double-Blind Part received 3 intravenous (IV) injections during the Treatment Visit: (1) placebo; (2) a low, challenge binodenoson dose to detect potential hypersensitivity reactions; and (3) an assigned binodenoson test dose. Subjects randomized to receive placebo in the Double Blind Part received 3 placebo injections. The Follow-Up Visit occurred 2 to 4 days following the Treatment Visit.
# Eligible subjects were males or non-pregnant, nonlactating females ≧18 years of age weighing <350 pounds with a medical history of mild, intermittent asthma (as defined in the “Guidelines for the Diagnosis and Management of Asthma” prepared by the National Institutes of Health [NIH]) within 6 months of Screening.
# Subjects were not eligible for the study if they had resting sitting systolic blood pressure (SBP)<100 or >140 mmHg, diastolic blood pressure (DBP)<60 or >90 mmHg, pulse rate >95 beats per minute (bpm), or a lower limit FEV1 at rest of <80% of the predicted value at Screening.
# Dose and Mode of Administration: A stock solution of binodenoson (25 μg/mL) was administered as a bolus injection over 30 seconds (0.1 μg/kg=0.004 mL/kg of stock solution, 0.5 μg/kg=0.02 mL/kg of stock solution, 1.0 μg/kg=0.04 mL/kg of stock solution and 1.5 μg/kg=0.06 mL/kg of stock solution).
# Duration of Treatment: Each subject received three 30-second bolus IV injections separated by ≧90 minutes in both the Single Blind and Double-Blind Parts of the study.
# Criteria for Evaluation: The primary safety endpoint was clinically significant bronchoconstriction, defined as a ≧20% decrease in FEV1 from the predrug baseline following binodenoson administration. Other safety assessments included need for rescue medication, regular measurements of pulmonary function (FEV1 [% predicted], forced vital capacity [FVC] and forced expiratory flow during the middle half of the FVC [FEF25%-75%]), vital signs, pulse oximetry, physical examination findings, electrocardiogram (ECG) results, clinical laboratory results and adverse events.
# Statistical Methods: All data collected in the study were summarized by treatment (placebo; 0.1 μg/kg binodenoson challenge; or 0.5, 1.0, or 1.5 μg/kg binodenoson) and study Part (Single-Blind or Double-Blind with univariate summaries). Continuous variables were summarized with descriptive statistics (n, mean, median, standard deviation [SD] and minimum and maximum). […]
# [1] = double-blind, third injection 1.5 μg/kg iv bolus, 90 min
# [2] = single-blind, Cohort 1, second injection 0.1 μg/kg iv bolus, 15 minutes
# [3] = single-blind, Cohort 1, second injection 0.1 μg/kg iv bolus, 90 minutes
# [4] = single-blind, Cohort 2, second injection 0.1 μg/kg iv bolus, 15 minutes
# [5] = single-blind, Cohort 2, second injection 0.1 μg/kg iv bolus, 90 minutes
# [6] = single-blind, Cohort 3, second injection 0.1 μg/kg iv bolus, 15 minutes
# [7] = single-blind, Cohort 3, second injection 0.1 μg/kg iv bolus, 90 minutes
smiles,measurement,setting,value
"Nc1nc(N/N=C/C2CCCCC2)nc2c1ncn2[C@@H]1O[C@H](CO)[C@@H](O)[C@H]1O (stereo in doubt) [Binodenoson, 2-{2-[(Cyclohexyl)methylene]hydrazino}adenosine]",FEF25%-75% Mean (SD),[1],2.923 (0.963)
same,FEV1 (% predicted) Mean % Change from Baseline (SD),[1],1.1 (3.2) %
same,FEV1 (% predicted) Mean (SD),[1],89.0 (7.7) % predicted
same,FEV1 Mean % Change from Baseline (SD),[1],1.228 (3.835) %
same,FEV1 Mean (SD),[1],3.191 (0.588)
same,FVC Mean % Change from Baseline (SD),[1],1.755 (3.720) %
same,FVC Mean (SD),[1],4.093 (0.800)
same,"changes in SBP, pulse rate and DBP","double-blind, magnitude greater in binodenoson than placebo group",Transient increases in SBP and pulse rate and decreases in DBP
same,need for rescue medication,single- and double-blind parts,No subject required rescue medication
same,clinically significant bronchoconstriction (≧20% decrease in FEV1 from predrug baseline),"single- and double-blind parts, doses up to 1.5 μg/kg",No bronchoconstriction events; also recorded: did not induce bronchoconstriction
same,FEF25%-75% Mean % Change from Baseline (SD),[2],0.526 (7.433) %
same,FEF25%-75% Mean (SD),[2],2.994 (0.911)
same,FEV1 (% predicted) Mean % Change from Baseline (SD),[2],0.1 (3.6) %
same,FEV1 (% predicted) Mean (SD),[2],90.5 (12.1) % predicted
same,FEV1 (L) Mean % Change from Baseline (SD),[2],0.136 (3.922) %
same,FEV1 (L) Mean (SD),[2],3.908 (0.824) L
same,FVC Mean % Change from Baseline (SD),[2],−0.003 (2.480) %
same,FVC Mean (SD),[2],5.516 (1.130)
same,FEF25%-75% Mean % Change from Baseline (SD),[3],9.136 (9.019) %
same,FEF25%-75% Mean (SD),[3],3.241 (0.946)
same,FEV1 (% predicted) Mean % Change from Baseline (SD),[3],4.5 (3.5) %
same,FEV1 (% predicted) Mean (SD),[3],94.9 (12.3) % predicted
same,FEV1 (L) Mean % Change from Baseline (SD),[3],5.043 (4.097) %
same,FEV1 (L) Mean (SD),[3],4.101 (0.867) L
same,FVC Mean % Change from Baseline (SD),[3],2.379 (3.221) %
same,FVC Mean (SD),[3],5.654 (1.188)
same,FEF25%-75% Mean % Change from Baseline (SD),[4],0.724 (4.318) %
same,FEF25%-75% Mean (SD),[4],3.665 (1.555)
same,FEV1 (% predicted) Mean % Change from Baseline (SD),[4],1.4 (2.5) %
same,FEV1 (% predicted) Mean (SD),[4],94.8 (13.2) % predicted
same,FEV1 (L) Mean % Change from Baseline (SD),[4],1.292 (2.662) %
same,FEV1 (L) Mean (SD),[4],3.944 (0.895) L
same,FVC Mean % Change from Baseline (SD),[4],2.129 (3.295) %
same,FVC Mean (SD),[4],5.120 (1.195)
same,FEF25%-75% Mean % Change from Baseline (SD),[5],−2.574 (12.173) %
same,FEF25%-75% Mean (SD),[5],3.471 (1.285)
same,FEV1 (% predicted) Mean % Change from Baseline (SD),[5],0.3 (4.2) %
same,FEV1 (% predicted) Mean (SD),[5],93.6 (13.0) % predicted
same,FEV1 (L) Mean % Change from Baseline (SD),[5],0.165 (4.367) %
same,FEV1 (L) Mean (SD),[5],3.895 (0.854) L
same,FVC Mean % Change from Baseline (SD),[5],1.624 (3.599) %
same,FVC Mean (SD),[5],5.100 (1.219)
same,FEF25%-75% Mean % Change from Baseline (SD),[6],0.635 (6.670) %
same,FEF25%-75% Mean (SD),[6],2.758 (0.695)
same,FEV1 (% predicted) Mean % Change from Baseline (SD),[6],0.1 (2.7) %
same,FEV1 (% predicted) Mean (SD),[6],90.5 (8.5) % predicted
same,FEV1 (L) Mean % Change from Baseline (SD),[6],0.145 (2.786) %
same,FEV1 (L) Mean (SD),[6],3.325 (0.690) L
same,FVC Mean % Change from Baseline (SD),[6],0.480 (2.084) %
same,FVC Mean (SD),[6],4.364 (0.876)
same,FEF25%-75% Mean % Change from Baseline (SD),[7],4.324 (8.478) %
same,FEF25%-75% Mean (SD),[7],2.836 (0.636)
same,FEV1 (% predicted) Mean % Change from Baseline (SD),[7],0.9 (2.0) %
same,FEV1 (% predicted) Mean (SD),[7],91.3 (7.3) % predicted
